Data: patent publication US20190300882A1, “METHODS OF TREATING NEUROBLASTOMA AND REAGENTS THEREFOR” (GARVAN INSTITUTE OF MEDICAL RESEARCH, priority 2016, published 2019)

Tests used:
SHEP cells [1] = test: Primary functional miRNA mimic screen, CellTiter-Glo cell viability; format: cell-based; details: miRNA mimic 25 nM alone, 144 hours post-transfection
Source text: Breast cancer cell lines (MDA-MB-231, MDA-MB-468, SK-BR-3; BT474) and prostate cancer cell lines (PC3, DU145) were obtained from American Type Culture Collection (ATCC). Neuroblastoma cell lines (KELLY, SHEP) were received from Children's Cancer Institute (CCIA). The KELLY cells were selected as a MYCN amplified neuroblastoma cell line and the SHEP cells were selected as a MYCN wild-type neuroblastoma cell line.
All breast and prostate cancer cell lines were cultivated in RPMI media supplemented with 10% FCS, HEPES, and insulin. The neuroblastoma cell lines, KELLY, SHEP, were grown in 10% FCS/RPMI and 10% FCS/DMEM, respectively.
(§1) Each of the cell lines were reverse transfected in 384-well plate format with 25 nM of a miRNA from the Dharmacon miRNA mimic or inhibitor libraries (version 16.0) using liquid-handling robot Calliper Sciclone ALH3000 according to the conditions described in Table 3. After 24 hours, media was changed using BioTek 406, and 144 hours post-transfection, cell viability was determined using CellTiter-Glo luminescent assay (Promega) at 1:2 dilution. Luminescence measurements were taken on the Synergy H4 high-throughput multimode microplate reader. All screens were performed in duplicates.
Raw viability was normalised to a nontargeting control (OTP) or mock wells, and death genes or controls inducing varying levels of death were used to monitor transfection efficiency and to define dynamic range in each screen (FIG. 1). To define screen hits, normalised viability scores were binned in the following manner: CV1 bin included candidates with viability >=0.8; CV2 bin included candidates with viability <0.8 and >0.5, and LC bin was assigned to candidates with normalised viability <=0.5. Only LC candidates were defined as screen hits.

KELLY cells [2] = test: Secondary validation screen of lethal miRNAs, cell viability; format: cell-based; details: miRNA mimic alone
Method: as §1
(§2) The secondary validation screens were performed in accordance with the genome-wide screens described in Example 1 and Example 2, respectively, with the exception that an additional MYCN-amplified neuroblastoma cell line (SK-N-DZ) was added to each screen.
(§3) Furthermore, five additional non-active miRNAs discovered to have no measureable effect across all treatment groups of the genome-wide screen (‘non-lethal’ miRNAs) were included as negative controls.

SHEP cells [3] = test: as above; format: cell-based; details: miRNA mimic alone
Method: as §1, §2, §3

[4] = system: SK-N-DZ MYCN-amplified neuroblastoma cell line; test: Secondary validation screen of lethal miRNAs, additional cell line, cell viability; format: cell-based; details: miRNA mimic alone
Method: as §1, §2, §3

KELLY cells [5] = test: Primary functional miRNA mimic screen, CellTiter-Glo cell viability; format: cell-based; details: miRNA mimic 25 nM alone, 144 hours post-transfection
Source text: Breast cancer cell lines (MDA-MB-231, MDA-MB-468, SK-BR-3; BT474) and prostate cancer cell lines (PC3, DU145) were obtained from American Type Culture Collection (ATCC). Neuroblastoma cell lines (KELLY, SHEP) were received from Children's Cancer Institute (CCIA). The KELLY cells were selected as a MYCN amplified neuroblastoma cell line and the SHEP cells were selected as a MYCN wild-type neuroblastoma cell line. All breast and prostate cancer cell lines were cultivated in RPMI media supplemented with 10% FCS, HEPES, and insulin. […] Each of the cell lines were reverse transfected in 384-well plate format with 25 nM of a miRNA from the Dharmacon miRNA mimic or inhibitor libraries (version 16.0) using liquid-handling robot Calliper Sciclone ALH3000 according to the conditions described in Table 3. […] Luminescence measurements were taken on the Synergy H4 high-throughput multimode microplate reader. All screens were performed in duplicates. Raw viability was normalised to a nontargeting control (OTP) or mock wells, and death genes or controls inducing varying levels of death were used to monitor transfection efficiency and to define dynamic range in each screen (FIG. 1). To define screen hits, normalised viability scores were binned in the following manner: CV1 bin included candidates with viability >=0.8; […] Only LC candidates were defined as screen hits.

IMR-90 cells = test: Cell toxicity screen of synthetic lethal miRNAs in non-cancer cells; details: for cell viability in non-cancer cells, DXR (% of control): IMR-90, miRNA + low dose IC30 doxorubicin; for cell viability in non-cancer cells, VCR (% of control): IMR-90, miRNA + low dose IC30 vincristine; for cell viability in non-cancer cells, Media (% of control): IMR-90, miRNA alone (media)
Method: The cell toxicity screens were performed in IMR-90 cells (normal human fibroblast cells, ATCC).

KELLY cells [6] = test: Secondary validation screen of synthetic lethal miRNAs with low dose IC30 chemotherapy, cell viability; format: cell-based; details: for synthetic lethality with chemotherapy: in both Kelly and SKNDZ MYCN-amplified cells, secondary screen; for Secondary screen Viability (% of control) Kelly DXR: miRNA mimic + low dose IC30 doxorubicin; for Secondary screen Viability (% of control) Kelly VCR: miRNA mimic + low dose IC30 vincristine; for Secondary screen Viability (% of control) Kelly Vehicle: miRNA mimic + vehicle
Method: (§4) KELLY cells were grown in 10% FCS/RPMI as described in Example 1 and reverse transfected in 384-well plate format with 25 nM of a miRNA from the Dharmacon microRNA mimic Library (version 16.0) using liquid-handling robot Calliper Sciclone ALH3000 according to the conditions described in Table 3. After 24 hours, media was changed using a BioTek 406. Media was again changed after 48 hours and 96 hours using a BioTek 406, and at each of those time points low dose IC30 of vincristine or doxorubicin was added to the culture. 144 hours post-transfection, cell viability was determined using CellTiter-Glo luminescent assay (Promega) at 1:2 dilution. Luminescence measurements were taken on the Synergy H4 high-throughput multimode microplate reader as described in Example 1. All screens were performed in duplicates. The experimental design and timeline for this screen are illustrated in FIGS. 5 and 6, respectively.
as §2, §3

[7] = system: SK-N-DZ MYCN-amplified neuroblastoma cell line; test: Secondary validation screen of synthetic lethal miRNAs with low dose IC30 chemotherapy, additional cell line; format: cell-based; details: for Additional cell line Viability (% of control) SKNDZ DXR: miRNA mimic + low dose IC30 doxorubicin; for Additional cell line Viability (% of control) SKNDZ VCR: miRNA mimic + low dose IC30 vincristine; for Additional cell line Viability (% of control) SKNDZ Vehicle: miRNA mimic + vehicle
Method: as §4, §2, §3

KELLY cells [8] = test: Primary miRNA mimic screen in combination with low dose IC30 of vincristine or doxorubicin, cell viability; format: cell-based; details: for Primary screen Viability (% of control) Kelly DXR: miRNA mimic 25 nM + low dose IC30 doxorubicin; for Primary screen Viability (% of control) Kelly VCR: miRNA mimic 25 nM + low dose IC30 vincristine; for Primary screen Viability (% of control) Kelly Vehicle: miRNA mimic 25 nM + vehicle
Method: To systematically identify miRNAs that affect viability and survival of neuroblstoma cells in combination with chemotherapy, a further functional miRNA screen was performed using the 1200 miRNAs from the miRIDIAN miRNA mimic Library (version 16.0; Dharmacon) in combination with low dose IC30 of vincristine or doxorubicin in the two neuroblastoma cancer cell lines. In doing so, the inventors identified miRNAs which result in a lethal phenotype to neuroblastoma cells when administered in combination with low dose IC30 chemotherapy (hereinafter referred to as ‘synthetic lethal’ miRNAs). […] After 24 hours, media was changed using a BioTek 406. […] Luminescence measurements were taken on the Synergy H4 high-throughput multimode microplate reader as described in Example 1. All screens were performed in duplicates.

Substance	Primary screen Viability (% of control) SHEP (SHEP cells [1])	Secondary screen Viability (% of control) KELLY (KELLY cells [2])	Secondary screen Viability (% of control) SHEP (SHEP cells [3])	Additional cell line Viability (% of control) SKNDZ [4]	Primary screen Viability (% of control) KELLY (KELLY cells [5])	cell viability in non-cancer cells, DXR (% of control) (IMR-90 cells)	cell viability in non-cancer cells, VCR (% of control) (IMR-90 cells)	cell viability in non-cancer cells, Media (% of control) (IMR-90 cells)	synthetic lethality with chemotherapy (KELLY cells [6])	Secondary screen Viability (% of control) Kelly DXR (KELLY cells [6])	Secondary screen Viability (% of control) Kelly VCR (KELLY cells [6])	Secondary screen Viability (% of control) Kelly Vehicle (KELLY cells [6])	Additional cell line Viability (% of control) SKNDZ DXR [7]	Additional cell line Viability (% of control) SKNDZ VCR [7]	Additional cell line Viability (% of control) SKNDZ Vehicle [7]	Primary screen Viability (% of control) Kelly DXR (KELLY cells [8])	Primary screen Viability (% of control) Kelly VCR (KELLY cells [8])	Primary screen Viability (% of control) Kelly Vehicle (KELLY cells [8])
hsa-miR-550a-3p (guide UGUCUUACUCCCUCAGGCACAU; chemistry not given here; listed as Homo sapiens)	61 % of control	15 % of control	94 % of control	82 % of control	4 % of control	–	–	–	–	–	–	–	–	–	–	–	–	–
hsa-miR-489 (guide GUGACAUCACAUAUACGGCAGC; chemistry not given here; listed as Homo sapiens)	40 % of control	4 % of control	43 % of control	33 % of control	5 % of control	–	–	–	–	–	–	–	–	–	–	–	–	–
hsa-miR-552 (guide AACAGGUGACUGGUUAGACAA; chemistry not given here; listed as Homo sapiens)	36 % of control	2 % of control	47 % of control	36 % of control	2 % of control	–	–	–	–	–	–	–	–	–	–	–	–	–
hsa-miR-876-3p (guide UGGUGGUUUACAAAGUAAUUCA; chemistry not given here; listed as Homo sapiens)	94 % of control	6 % of control	51 % of control	48 % of control	6 % of control	–	–	–	–	–	–	–	–	–	–	–	–	–
hsa-miR-34a-5p (UGGCAGUGUCUUAGCUGGUUGU; chemistry not given here; listed as Homo sapiens)	–	–	–	–	–	53 % of control	63 % of control	46 % of control	substantial synthetic lethality	98 % of control	35 % of control	96 % of control	74 % of control	57 % of control	92 % of control	70 % of control	36 % of control	72 % of control
hsa-miR-515-3p (guide GAGUGCCUUCUUUUGGAGCGUU; chemistry not given here; listed as Homo sapiens)	–	–	–	–	–	50 % of control	51 % of control	59 % of control	substantial synthetic lethality	42 % of control	73 % of control	82 % of control	24 % of control	70 % of control	85 % of control	38 % of control	56 % of control	84 % of control
